Active and inactive are the calls of the source. No rule for the calls is given here. Where only a bound is given, the exact number is not on record here.

The target in the assay is Hepatitis C virus NS3 helicase (ATPase activity). Kind of assay: HCV NS3 ATP hydrolysis blockers – biochemical, absorbance, mechanism study for HCV NS3 helicase inhibitor project, late-stage follow-up (AID 623973). To be noted: absorbance phosphate detection.
Turning to `Cc1ccc2nc(-c3ccc4nc(-c5ccc(NC(=O)c6ccc(N)cc6)cc5)sc4c3)sc2c1S(=O)(=O)O`, the IC50 result was “inactive”.
Consider `CN1CCN(Cc2cc(CN3CCN(C)CC3)c(O)c(=O)c(CN3CCN(C)CC3)c2)CC1`, for which the IC50 is > 200 µM (inactive).
With `Cc1ccc2nc(-c3ccc4nc(-c5ccc(NC(=O)c6cc(C(F)(F)F)cc(C(F)(F)F)c6)cc5)sc4c3)sc2c1S(=O)(=O)O`, the IC50 result was “inactive”.
Consider `Cc1ccc2nc(-c3ccc4nc(-c5ccc(NC(=O)c6ccc7ccccc7c6)cc5)sc4c3)sc2c1S(=O)(=O)O`, for which the IC50 was 30 µM.
For `Cc1cc2sc(-c3ccc(N)cc3)nc2cc1S(=O)(=O)O`, the IC50 was > 200 µM (inactive).
In the case of `Cc1ccc2nc(-c3ccc4nc(-c5ccc(NC(=O)c6cc(C(F)(F)F)ccc6F)cc5)sc4c3)sc2c1S(=O)(=O)O`, the IC50 is 61 µM.
For `Cc1ccc2nc(-c3ccc4nc(-c5ccc(NC(=O)c6ccc(C(C)(C)C)cc6)cc5)sc4c3)sc2c1S(=O)(=O)O`, the IC50 result was “inactive”.
With `Cc1ccc2nc(-c3ccc4nc(-c5ccc(NC(=O)c6ccc(F)cc6)cc5)sc4c3)sc2c1S(=O)(=O)O`, the IC50 was 67 µM.
With `Cc1ccc2nc(-c3ccc4nc(-c5ccc(NC(=O)c6ccc7nc(-c8ccc(N)cc8)sc7c6)cc5)sc4c3)sc2c1S(=O)(=O)O`, the IC50 is > 200 µM (inactive).
Consider `Cc1ccc2nc(-c3ccc4nc(-c5ccc(NC(=O)c6ccc(Cl)c(Cl)c6)cc5)sc4c3)sc2c1S(=O)(=O)O`, for which the IC50 is 44 µM.
Regarding `Cc1cc2sc(-c3ccc4nc(-c5ccc(N)cc5)sc4c3)nc2cc1S(=O)(=O)O`, the IC50 is > 200 µM (inactive).
Turning to `Cc1ccc2nc(-c3ccc4nc(-c5ccc(N)cc5)sc4c3)sc2c1S(=O)(=O)O`, the IC50 is > 200 µM (inactive).
Regarding `COc1ccc(NC(=O)Nc2ccc(-c3nc4ccc(-c5nc6ccc(C)c(S(=O)(=O)O)c6s5)cc4s3)cc2)cc1`, the IC50 was 73 µM.
For `COc1ccc(C(=O)Nc2ccc(-c3nc4ccc(-c5nc6ccc(C)c(S(=O)(=O)O)c6s5)cc4s3)cc2)cc1`, the IC50 is 50 µM.
The figure for `Cc1ccc2nc(-c3ccc4nc(-c5ccc(NC(=O)c6ccc(Br)cc6)cc5)sc4c3)sc2c1S(=O)(=O)O` is 50 µM; for `Cc1cc(C(O)(c2ccc(Nc3ccccc3)cc2)c2ccc(Nc3ccc(S(=O)(=O)O)cc3)cc2)ccc1N` (stereo unspecified) it is > 200 µM (inactive); for `CCN(CC)c1ccc(-c2nc3ccc(C)c(S(=O)(=O)O)c3s2)cc1` it is > 200 µM (inactive).
Consider `Cc1ccc2nc(-c3ccc(N)cc3)sc2c1S(=O)(=O)O`, for which the IC50 is > 200 µM (inactive).
Turning to `Cc1ccc2nc(-c3ccc4nc(-c5ccc(NC(=O)Nc6ccccc6)cc5)sc4c3)sc2c1S(=O)(=O)O`, the IC50 was 70 µM.
For `Cc1ccc2nc(-c3ccc4nc(-c5ccc(NC(=O)c6cccc(Cl)c6)cc5)sc4c3)sc2c1S(=O)(=O)O`, the IC50 is 74 µM.
As for `Cc1ccc(C(=O)Nc2ccc(-c3nc4ccc(-c5nc6ccc(C)c(S(=O)(=O)O)c6s5)cc4s3)cc2)cc1`, the IC50 was 33 µM.
On to `COc1cccc2c(=O)c3cc(Cl)cc(C(=O)Nc4cc(Cl)ccn4)c3[nH]c12`, for which the IC50 is > 200 µM (inactive).
Regarding `Cc1ccc2nc(-c3ccc4nc(-c5ccc(NC(=O)c6ccc(C(F)(F)F)cc6)cc5)sc4c3)sc2c1S(=O)(=O)O`, the IC50 is 24 µM.
The figure for `CCN(CC)c1ccc(-c2nc3ccc(-c4nc5ccc(C)c(S(=O)(=O)O)c5s4)cc3s2)cc1` is > 200 µM (inactive); for `Cc1ccc2nc(-c3ccc4nc(-c5ccc(NC(=O)c6cccnc6)cc5)sc4c3)sc2c1S(=O)(=O)O` it is > 200 µM (inactive).
For `Cc1ccc2nc(-c3ccc4nc(-c5ccc(NC(=O)Nc6ccc(Cl)cc6)cc5)sc4c3)sc2c1S(=O)(=O)O`, the IC50 was 86 µM.
On to `O=C(CCCCCCC(=O)Nc1ccc(-c2nc3ccccc3[nH]2)cc1)Nc1ccc(-c2nc3ccccc3[nH]2)cc1`, for which the IC50 is > 200 µM (inactive).
On to `Cc1ccc2nc(-c3ccc4nc(-c5ccc6nc(-c7ccc8nc(-c9ccc(N)cc9)sc8c7)sc6c5)sc4c3)sc2c1S(=O)(=O)O`, for which the half-inhibitory concentration (IC50) is 43 µM.
Under `Cc1ccc2nc(-c3ccc(NC(=O)c4ccc(NC(=O)Nc5ccccc5)cc4)cc3)sc2c1S(=O)(=O)O` stands > 200 µM (inactive); under `Cc1ccc2c(sc(-c3ccc4c(c3)sc(-c3ccc5c(c3)sc(-c3ccc(N(C)C)cc3)[n+]5C)[n+]4C)[n+]2C)c1S(=O)(=O)O` (tested in a mixture with another compound), > 200 µM (inactive).
On to `CCOc1ccc2c(NNC(=O)c3cnccn3)c3c(nc2c1)CCCC3`, for which the IC50 was > 200 µM (inactive).

The record behind these values is PubChem BioAssay AID623973 (The Scripps Research Institute Molecular Screening Center, 2012).
